Reference: patent publication US20070021485A1, “Aryl (or heteroaryl) azolylcarbinols” (priority 2005, published 2007)
Like-named read-outs stand apart in the source and are kept apart here.

What was measured:
rat bladder contractions = assay: Isovolumetric rhythmic bladder contractions in the anesthetized rat: amplitude and rate of the contractions; format: in vivo; settings: for amplitude of the bladder contractions / rate of the bladder contractions: anesthetized rat, iv, 6.83, 13.7 and 27.3 mg/kg given as citrate, FIG. 2
Procedure: (1) Isovolumetric Rhythmic Bladder Contractions in the Anesthetized Rat
(a) Amplitude and Rate of the Contractions
Rat urinary bladder catheterized:
A pressure transducer is used to measure intravesical pressure (recording rate and amplitude of bladder contractions).
An infusion pump is used to fill bladder by 0.1 ml increments of saline until rhythmic contractions. After 15 minutes of constant interval bladder contractions, (R)-(+)-2-((1-methyl-1H-pyrazol-5-yl)(phenyl)methoxy-N-methylethanamine citrate in 6.83, 13.7, and 27.3 mg/kg dosages; (S)-(−)-2-((1-methyl-1H-pyrazol-5-yl)(phenyl)methoxy-N-methylethanamine citrate in 6.83, 13.7 and 27.3 mg/kg dosages; and oxybutinyn in a 1 mg/kg dose were administered by iv. Measurements were made before and then during 15 minute intervals after each administration.
Aditionally the compound 1, accoridng example 1, and its enantiomers were active in rat urinary incontinence test. They inhibited the amplitude of the rat bladder contractions. The compounds were evaluated in a model of cystometry in the anesthesized rat, looking for the effects on isovolumetric rhythmic bladder contractions. The method, which evaluatesthe effects of the test substances on lower urinary tract function, followed that described by Y. Kimura et al. ( Int. J. Urol. 1996, 3: 218-227).

[1] = tested on: aversive situation-induced immobility; assay: Inhibition of immobility induced by an aversive situation (tail suspension) in mice; format: in vivo; settings: Mus musculus, ip, read-out: Immobility test Tail hanging In mice ED50
Procedure: The test was described by R. D. Porsolt et al. (Arch.int.Pharmacodyn. 1987, 288: 11-30). Following suchg method, the compound to be studied was administered by ip route, and 30 minutes later mice were submitted to an aversive situation: they were tail suspended in the […] for 6 minutes. Mobility time and movements power were authomatically measured and registered in the above mentioned device. The potential antidepressant reduce the mice immobility time.

rat urinary bladder = assay: Urodynamic parameters (cystometry) in the anesthetized rat; format: in vivo; settings: for mean volume of micturition / number of micturitions / volume for the first micturition: anesthetized rat, iv, duloxetine 1 mg/kg, cizolirtine 10 mg/kg, N-desmethyl metabolite 10 mg/kg, vs control vehicle, FIG. 3
Procedure: Rat urinary bladder was catheterized. A pressure transducer was used to measure intavesical pressure in anesthetized rats treated with 1 mg/kg duloxetine, 10 mg/kg cizolirtine, 10 mg/kg N-desmethyl metabolite or a control vehicle. Recordings were made of the infusion volume, pressure needed for micturition, number of micturitions during the infusion.
An infusion pump was used to fill bladder with saline until micturition. After stabilization, treatment compounds or control vehicle were administered by iv. Fifteen minutes after administration, saline infusion was started and urodynamic parameters were again analyzed. The number of micturitions, volume for first micturition, mean volume for micturition, and AUC of intravesical pressure were measured for each of the treatment groups and compared to the control.
(§1) This is performed on Sprague-Dawley male and female anaesthetized rats. Left carotid artery is inserted with a catheter for the continuous measure of systemic arterial pressure and cardiac frequency. After an incision to the abdomen, a catheter is inserted on the bladder and connected to a pressure transducer and to an infusion pump. The urethra is ligated and the bladder is voided. After stabilization period, saline solution is infused (0.9 % NaC1solution at 5 ml/h rate) and the basal parameters of intravesical pressure are measured for 20 min. Cystometry parameters are the infusion volume and pressure needed to activate the micturition reflex, and the micturition frequency. After stabilization period, the compounds are administered i.v. and, 15 min. later, saline is infused and urodynamic parameters are measured again to compare with basal.

[2] = tested on: immobility in forced swimming; assay: Water despair test (forced swimming) in rats; format: in vivo; settings: for Swimming Test Forced swimming In rats, activity at single dose: 40 mg/Kg; for ED50: read-out: Swimming Test Forced swimming In rats ED50
Procedure: The test was described by R. D. Porsolt et al. (Europ.J.Pharmacol. 1978, 47:379-391). […] The following day, 24 hours later, were let to swim in the water, but only for 5 minutes, and it was […] immobility time. The compounds to be studied were administered by ip route, 60 minutes before the test. The antidepressants reduce the immobility time. […] (Tablel).

reserpine-induced ptosis = assay: Inhibition of reserpine-induced ptosis in mice; format: in vivo; settings: for ED50: Mus musculus, read-out: Inhibition test Reserpin ptosis In mice ED50
Procedure: It has been used the test described by S.Garattini et al. (Med.Exp. 1960, 3: 315-320). The antidepressant drugs inhibit the parpebral ptosis induced by reserpine ([…], i.p.) in mice.

[3] = tested on: acetic acid-induced bladder hyperactivity; assay: Protection against acetic acid-induced bladder hyperactivity in the anesthetized rat; format: in vivo; settings: for protection of the rat bladder against the acetic acid-induced hyperactivity: cizolirtine 5, 10 mg/kg i.v.; for protection of the rat bladder against the acetic acid-induced hyperactivity / number of micturitions / volume for the first micturition: duloxetine 1 mg/kg; for number of micturitions / volume for the first micturition: cizolirtine 5 and 10 mg/kg, vs control, FIG. 4
Procedure: (a) Protection Against Acetic Acid-induced Hyperactivity: Urodynamic Parameters
Anesthetized rat bladders were treated with […], […] and 1 mg/kg duloxetine, […] and 5 mg/kg cizolirtine, […] and 10 mg/kg cizolirtine, or […] and 10 mg/kg N-desmethyl metabolite. The number of micturitions, the volume for first micturition, micturition volume, intravesical pressure increase, and AUC of intravesical pressure were measured for each of the treatment groups and the control.
as §1
Further the effect on acetic acid-induced bladder hiperactivity is tested.

serotonin transporter = molecular target: T1, serotonin transporter (Rattus norvegicus, UniProt P31652); assay: Serotonin transporter affinity, (3H)paroxetine binding in rat brain cortex; settings: (3H)paroxetine radioligand, serotonin 100 μM non specific
T1 construct: from tissue; host or cells: rat brain cortex
Procedure: This affinity was studied in rat brain cortex, using (3H)paroxetine ([…]) as radioligand and 5-Hydroxytriptamine (serotonin)(100 μM) as non specific ligand.

[4] = tested on: urinary incontinence secondary to overactive bladder or idiopathic urge incontinence; assay: Clinical Study A, placebo controlled, 50 mg twice a day; format: in vivo, human; settings: patients
Procedure: (§2) In a placebo controlled clinical trial 79 patients are randomized. Patients are from both genders with ages between 18 and 80 years (inclusive). They have urinary incontinence secondary to overactive bladder (detrusor hyperreflexia or instability) or idiopathic urge incontinence confirmed by the medical history and urodynamic study.
One group of patients is treated with 2-((1-methyl-1H-pyrazol-5-yl)(phenyl)methoxy-N-methylethanamine, 50 mg, twice a day, formulated as a tablet for oral administration. Another group is treated with placebo in matching tablets, twice a day, with administration by oral route. The patients are treated for 84 days.
Efficacy is measured by the difference from baseline in the mean number of leakages, micturitions, urgencies and voidings/24 hours as provided by a 7-day frequency-volume chart in the end of the study visit.
(§3) The primary efficacy analysis is based on the PP population. The treatment groups are compared with respect to the treatment effect, defined as the difference between treatment groups for changes from baseline in the number of voidings per 24 hours.
Additionally, the percentage of responders is compared based on an analysis of the number of patients having <8 voidings/day or experiencing complete dryness or both, and statistical significance determined.

[5] = tested on: urinary incontinence secondary to overactive bladder or idiopathic urge incontinence; assay: Clinical Study B, placebo controlled, 100 mg twice daily; format: in vivo, human; settings: patients, 100 mg by oral route twice daily, 84 days
Procedure: as §2, with “135” for “79”
One group of patients is treated with 2-((1-methyl-1H-pyrazol-5-yl)(phenyl)methoxy-N-methylethanamine 100 mg formulated as an oral administration (twice daily). Another group is treated with placebo matching capsules, […], with administration by oral route. The patients are treated for 84 days.
Efficacy is measured by the difference from baseline in the mean number of voidings/24 hours as provided by a 7-day frequency-volume chart in the end of study visit.
as §3
Additionally, the percentage of responders is compared based on analysis of the number of patients having <8 voidings per day or experienced complete dryness or both., and statistical significance determined.

[6] = mice, i.p., 30 minutes before tail suspension for 6 minutes
[7] = anaesthetized Sprague-Dawley rats, 10 mg/kg i.v., vs basal
[8] = N-desmethyl metabolite 10 mg/kg
[9] = acetic acid 0.3% v/v infusion, 10 mg/kg i.v.
[10] = acetic acid 0.3% v/v infusion, 10 mg/kg i.v. acute
[11] = acetic acid-treated rat bladder, N-desmethyl metabolite 10 mg/kg
[12] = 50 mg twice a day oral, 84 days, compared with placebo

T1 sequence (P31652 whole entry): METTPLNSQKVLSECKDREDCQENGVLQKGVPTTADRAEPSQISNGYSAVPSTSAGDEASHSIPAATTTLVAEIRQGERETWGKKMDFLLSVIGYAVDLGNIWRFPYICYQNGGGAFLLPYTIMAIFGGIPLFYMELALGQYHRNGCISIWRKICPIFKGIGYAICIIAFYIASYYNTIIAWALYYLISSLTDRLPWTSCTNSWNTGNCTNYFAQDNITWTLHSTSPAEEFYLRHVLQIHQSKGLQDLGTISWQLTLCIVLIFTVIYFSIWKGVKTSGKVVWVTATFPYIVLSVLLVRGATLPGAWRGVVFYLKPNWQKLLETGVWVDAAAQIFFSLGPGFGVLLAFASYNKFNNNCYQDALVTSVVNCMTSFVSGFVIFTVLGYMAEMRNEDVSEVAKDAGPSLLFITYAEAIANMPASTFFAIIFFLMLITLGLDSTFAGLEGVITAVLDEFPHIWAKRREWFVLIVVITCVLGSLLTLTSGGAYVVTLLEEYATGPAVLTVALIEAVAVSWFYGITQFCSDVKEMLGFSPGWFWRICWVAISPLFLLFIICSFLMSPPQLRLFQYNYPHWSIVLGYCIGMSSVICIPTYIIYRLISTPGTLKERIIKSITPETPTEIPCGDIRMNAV

Compound: CNCCO[C@@H](c1ccccc1)c1ccnn1C [2-((S)-(1-methyl-1H-pyrazol-5-yl)(phenyl)methoxy)-N-methylethanamine]
- amplitude of the bladder contractions (rat bladder contractions): inhibited
- rate of the bladder contractions (rat bladder contractions): without modifying the rate

Compound: CNCCO[C@H](c1ccccc1)c1ccnn1C [(R)-2-((1-methyl-1H-pyrazol-5-yl)(phenyl)methoxy)-N-methylethanamine]
- amplitude of the bladder contractions (rat bladder contractions): inhibited
- rate of the bladder contractions (rat bladder contractions): without modifying the rate

Compound: CN(C)CCOC(c1ccccc1)c1ccnn1C (centres unmarked) [Cizolirtine]
- ED50 [1, 6]: 17 mg/kg
- bladder contractility (rat urinary bladder; [7]): no alteration
- bladder pressure (rat urinary bladder; [7]): significantly reduced
- mean micturition volume (rat urinary bladder; [7]): significantly increased
- micturition frequency (rat urinary bladder; [7]): trends to decrease
- volume required for first micturition (rat urinary bladder; [7]): augment
- mean volume of micturition (rat urinary bladder): increased
- number of micturitions (rat urinary bladder): decreased
- volume for the first micturition (rat urinary bladder): increased
- Swimming Test Forced swimming In rats, activity at single dose ([2]; rats, i.p.): inactive
- ED50 (reserpine-induced ptosis; mice, p.o., reserpine i.p.): 26 mg/kg
- protection of the rat bladder against the acetic acid-induced hyperactivity [3, 8]: protected
- acetic acid-caused increase of bladder pressure [3, 9]: reversed
- contractile capacity of the bladder [3, 9]: Neither acetic acid nor cizolirtine significantly affected
- acetic acid-caused increase of micturition frequency [3, 10]: significantly reduced
- acetic acid-caused reduction of micturition volume [3, 10]: significantly reduced
- number of micturitions [3, 11]: reduced
- volume for the first micturition [3, 11]: increased

Compound: CNCCOC(c1ccccc1)c1ccnn1C (centres unmarked) [Compound 1, 2-((1-methyl-1H-pyrazol-5-yl)(phenyl)methoxy)-N-methylethanamine]
- ED50 [1]: 17 mg/kg
- Ki (serotonin transporter): 116 nM
- urge incontinence caused by overactive bladder, majority of efficacy variables ([4]; 50 mg twice a day by oral route, compared to placebo): clinically significant improvements
- mean number of daily leakages [4, 12]: significant reduction
- mean number of daily micturitions [4, 12]: significant reduction
- mean number of daily urgencies [4, 12]: significant reduction
- mean number of daily voidings [4, 12]: significant reduction
- mean volume of micturition (rat urinary bladder): increased
- number of micturitions (rat urinary bladder): decreased
- volume for the first micturition (rat urinary bladder): increased
- ED50 ([2]; Rattus norvegicus, ip): 33 mg/kg
- amplitude of the rat bladder contractions, rat urinary incontinence test (rat bladder contractions; cystometry in the anesthesized rat, method of Kimura et al.): inhibited
- ED50 (reserpine-induced ptosis): 14 mg/kg
- protection of the rat bladder against the acetic acid-induced hyperactivity [3, 8]: protected
- number of micturitions (sentence on FIG. 5) ([3]; acetic acid-treated rat bladder, N-desmethyl metabolite 10 mg/kg, FIG. 5): increased
- number of micturitions [3, 11]: reduced
- volume for the first micturition [3, 11]: increased
- bladder overactivity [5]: improve bladder overactivity

Compound: CNCCOC(c1cccs1)c1ccnn1C.O=C(O)C(=O)O (centres unmarked) [Compound 2, 2-((1-methyl-1H-pyrazol-5-yl)(thiophen-2-yl)methoxy)-N-methylethanamine; oxalate]
- ED50 [1, 6]: 33 mg/kg
- Swimming Test Forced swimming In rats, activity at single dose ([2]; rats, i.p.): inactive
- Inhibition test Reserpin ptosis In mice, activity at single dose (reserpine-induced ptosis; mice, p.o., 40 mg/Kg): inactive

Compound: CNCCCN1c2ccccc2CCc2ccccc21 [Desipramine]
- inhibition at 30 mg/kg ([2]; Rattus norvegicus, ip, rats, i.p., 30 mg/Kg, read-out: Swimming Test Forced swimming In rats, I (inhibition) at single dose): 32%

Compound: CN[C@H]1CC[C@@H](c2ccc(Cl)c(Cl)c2)c2ccccc21 [Sertraline]
- ED50 [1, 6]: 8 mg/kg
- ED50 ([2]; Rattus norvegicus, ip, rats, i.p., 60 minutes before the test): 28 mg/kg
- ED50 (reserpine-induced ptosis; mice, p.o., reserpine i.p.): 17 mg/kg

Compound: CNCC[C@H](Oc1cccc2ccccc12)c1cccs1 [duloxetine]
- mean volume of micturition (rat urinary bladder): increased
- number of micturitions (rat urinary bladder): decreased
- volume for the first micturition (rat urinary bladder): increased
- protection of the rat bladder against the acetic acid-induced hyperactivity [3, 8]: protected
- number of micturitions [3, 11]: reduced
- volume for the first micturition [3, 11]: increased
